Common to all, as to assay type: functional
In experiment [1] the test system is Staphylococcus aureus. In words: Antibacterial activity against erythromycin-susceptible Staphylococcus aureus ATCC 25923.
For experiment [2], the system named is Streptococcus pneumoniae. In words: Antibacterial activity against erythromycin-susceptible Streptococcus pneumoniae ATCC 49619.
For experiment [3], the system named is Staphylococcus aureus. In words: Antibacterial activity against methicillin-susceptible Staphylococcus aureus ATCC 29213.
Experiment [4] concerns Streptococcus pyogenes. In words: Antibacterial activity against erythromycin-susceptible Streptococcus pyogenes isolate S2.
Experiment [5] relates to Streptococcus pyogenes. In words: Antibacterial activity against erythromycin-resistant Streptococcus pyogenes isolate R2.
Experiment [6] deals with Streptococcus pneumoniae. In words: Antibacterial activity against erythromycin-resistant Streptococcus pneumoniae B1 expressing ermB gene.
The subject of experiment [7] is Streptococcus pneumoniae. In words: Antibacterial activity against erythromycin-resistant Streptococcus pneumoniae A22072 expressing mefA gene.
The test system of experiment [8] is Streptococcus pneumoniae. In words: Antibacterial activity against erythromycin-resistant Streptococcus pneumoniae AB11 expressing ermB/mefA gene.
The subject of experiment [9] is Escherichia coli. In words: Antibacterial activity against Escherichia coli ATCC 25922.
The subject of experiment [10] is Pseudomonas aeruginosa. In words: Antibacterial activity against Pseudomonas aeruginosa ATCC 27853.
Experiment [11] concerns Streptococcus pneumoniae. In words: Potency index, ratio of azithromycin MIC to compound MIC for erythromycin-resistant Streptococcus pneumoniae B1 expressing ermB gene.
For experiment [12], the system named is Streptococcus pneumoniae. In words: Potency index, ratio of azithromycin MIC to compound MIC for erythromycin-resistant Streptococcus pneumoniae A22072 expressing mefA gene.
For experiment [13], the system named is Streptococcus pneumoniae. In words: Potency index, ratio of azithromycin MIC to compound MIC for erythromycin-resistant Streptococcus pneumoniae AB11 expressing ermB/mefA gene.
The subject of experiment [14] is Streptococcus pneumoniae. In words: Potency index, ratio of clarithromycin MIC to compound MIC for erythromycin-resistant Streptococcus pneumoniae B1 expressing ermB gene.
The test system of experiment [15] is Streptococcus pneumoniae. In words: Potency index, ratio of clarithromycin MIC to compound MIC for erythromycin-resistant Streptococcus pneumoniae A22072 expressing mefA gene.
Experiment [16] deals with Streptococcus pneumoniae. In words: Potency index, ratio of clarithromycin MIC to compound MIC for erythromycin-resistant Streptococcus pneumoniae AB11 expressing ermB/mefA gene.
Experiment [17] relates to Streptococcus pyogenes. In words: Potency index, ratio of azithromycin MIC to compound MIC for erythromycin-susceptible Streptococcus pyogenes isolate S2.

The structures appear in SMILES notation. ≈ marks a conversion by molar mass, not a printed value.

Turning to `CC[C@H]1OC(=O)[C@H](C)[C@@H](O[C@H]2C[C@@](C)(OC)[C@@H](OC(=O)NCc3cn(Cc4ccccc4Cl)nn3)[C@H](C)O2)[C@H](C)[C@@H](O[C@@H]2O[C@H](C)C[C@H](N(C)C)[C@H]2O)[C@](C)(O)C[C@@H](C)CN(C)[C@H](C)[C@@H](OC(=O)NCc2ccc(OC)cc2)[C@]1(C)O`, the minimal inhibitory concentration (MIC) (as a rule, the smallest concentration in the dilution series that meets the test's criterion for growth inhibition) in experiment [1] is 0.03 mg/L (≈ 0.0258 µM); in [2] it was 0.125 mg/L (≈ 0.108 µM); in experiment [3] it was 16 mg/L (≈ 13.8 µM); in [4] it was below 0.002 mg/L; in experiment [5], 8 mg/L (≈ 6.89 µM); in experiment [6] it was 0.06 mg/L (≈ 0.0517 µM). Further, the MIC is 0.03 mg/L (≈ 0.0258 µM) in experiment [7], 0.125 mg/L (≈ 0.108 µM) in experiment [8], 32 mg/L (≈ 27.6 µM) in experiment [9] and 8 mg/L (≈ 6.89 µM) in [10]. In addition, the Ratio in experiment [11] is 1024 - 2133; in experiment [12], 32 - 133; in experiment [13], 1024 - 2048; in [14], 1024 - 2133; in [15] it was 32 - 133; in experiment [16] it was 1024 - 2048.

Consider `CC[C@H]1OC(=O)[C@H](C)[C@@H](O[C@H]2C[C@@](C)(OC)[C@@H](OC(=O)NCc3cn(Cc4ccc(Cl)cc4Cl)nn3)[C@H](C)O2)[C@H](C)[C@@H](O[C@@H]2O[C@H](C)C[C@H](N(C)C)[C@H]2O)[C@](C)(O)C[C@@H](C)CN(C)[C@H](C)[C@@H](O)[C@]1(C)O`, for which the MIC in experiment [1] is 1 mg/L (≈ 0.969 µM); in [2], 0.25 mg/L (≈ 0.242 µM); in experiment [3], 16 mg/L (≈ 15.5 µM); in experiment [4], 0.016 mg/L (≈ 0.0155 µM); in experiment [5] it was 64 mg/L (≈ 62 µM); in [6], 0.5 mg/L (≈ 0.484 µM). The MIC is 0.25 mg/L (≈ 0.242 µM) in experiment [7], 0.25 mg/L (≈ 0.242 µM) in experiment [8], 64 mg/L (≈ 62 µM) in experiment [9] and 32 mg/L (≈ 31 µM) in experiment [10]. Further, the Ratio in experiment [17] worked out at 12.5; in experiment [11], 256; in experiment [12] it was 16; in [13], 1024.

Regarding `CC[C@H]1OC(=O)[C@H](C)[C@@H](O[C@H]2C[C@@](C)(OC)[C@@H](OC(=O)NCc3cn(Cc4ccc(C)cc4)nn3)[C@H](C)O2)[C@H](C)[C@@H](O[C@@H]2O[C@H](C)C[C@H](N(C)C)[C@H]2O)[C@](C)(O)C[C@@H](C)CN(C)[C@H](C)[C@@H](OC(=O)NCc2ccc(OC)cc2)[C@]1(C)O`, the MIC in experiment [1] is 0.06 mg/L (≈ 0.0526 µM); in experiment [2] it was 0.125 mg/L (≈ 0.11 µM); in experiment [3], 32 mg/L (≈ 28.1 µM); in [4] it was below 0.002 mg/L; in experiment [5] it was 8 mg/L (≈ 7.01 µM); in [6], 0.125 mg/L (≈ 0.11 µM). Also, the minimal inhibitory concentration (MIC) in experiment [7] is 0.03 mg/L (≈ 0.0263 µM); in experiment [8] it was 0.25 mg/L (≈ 0.219 µM); in [9] it was 16 mg/L (≈ 14 µM); in experiment [10] it was 64 mg/L (≈ 56.1 µM). Further, the Ratio is 1024 - 2133 in [11]; 32 - 133 in experiment [12]; 1024 - 2048 in experiment [13]; 1024 - 2133 in experiment [14]; 32 - 133 in experiment [15]; 1024 - 2048 in [16].

As to `CC[C@H]1OC(=O)[C@H](C)[C@@H](O[C@H]2C[C@@](C)(OC)[C@@H](O)[C@H](C)O2)[C@H](C)[C@@H](O[C@@H]2O[C@H](C)C[C@H](N(C)C)[C@H]2O)[C@](C)(O)C[C@@H](C)CN(C)[C@H](C)[C@@H](O)[C@]1(C)O` [AZITHROMYCIN], the MIC in experiment [1] stood at 0.25 mg/L (≈ 0.334 µM); in [2], 0.125 mg/L (≈ 0.167 µM); in experiment [3], 1 mg/L (≈ 1.34 µM); in [4] it was 0.03 mg/L (≈ 0.0401 µM); in experiment [5], 128 mg/L (≈ 171 µM); in experiment [6] it was 128 mg/L (≈ 171 µM). Further, the minimum inhibitory concentration (MIC) is 4 mg/L (≈ 5.34 µM) in experiment [7], 256 mg/L (≈ 342 µM) in experiment [8], 16 mg/L (≈ 21.4 µM) in [9] and 8 mg/L (≈ 10.7 µM) in [10].

In the case of `CC[C@H]1OC(=O)[C@H](C)[C@@H](O[C@H]2C[C@@](C)(OC)[C@@H](O)[C@H](C)O2)[C@H](C)[C@@H](O[C@@H]2O[C@H](C)C[C@H](N(C)C)[C@H]2O)[C@](C)(OC)C[C@@H](C)C(=O)[C@H](C)[C@@H](O)[C@]1(C)O` [CLARITHROMYCIN], the MIC in experiment [1] is 0.12 mg/L (≈ 0.16 µM); in experiment [2] it was 0.125 mg/L (≈ 0.167 µM); in experiment [3], 0.25 mg/L (≈ 0.334 µM); in experiment [4], 0.03 mg/L (≈ 0.0401 µM); in experiment [5] it was 128 mg/L (≈ 171 µM); in experiment [6] it was 128 mg/L (≈ 171 µM). The MIC in experiment [7] came out at 4 mg/L (≈ 5.35 µM); in experiment [8], 128 mg/L (≈ 171 µM); in [9] it was 64 mg/L (≈ 85.6 µM); in experiment [10], 32 mg/L (≈ 42.8 µM).

The record behind these values is ChEMBL document CHEMBL4052714, “Synthesis and antibacterial activity of novel 4″-O-(1-aralkyl-1,2,3-triazol-4-methyl-carbamoyl) azithromycin analogs” (2017).
